# Reference: US20210349077A1, “Method of quantifying induced membrane permeability and of screening compounds able to prevent said permeability” (Zarbio, priority 2020, published 2021)
# How the values were obtained:
# [1] = Flow cytometric calcium permeabilization of phosphatidylserine liposomes (DiD membrane probe, Fluo-3 calcium probe); type: biochemical; settings: for channel formation / permeabilization of membranes to calcium: summary statement, FIG. 10 and 12; for permeability of liposomes to calcium: peptide stock in DMSO, final concentration 10 μM
# Source text: (§1) Unilamellar liposomes are created with Fluo-3 membrane-impermeant fluorescent dye sensitive to the concentration of calcium (an example of ion sensitive probe, ISP, at the FIG. 2). The buffer for the created liposomes is calcium-free, and can contain calcium-chelating agents, such as EGTA or EDTA. Both calcium-free and calcium-bound Fluo-3 effectively absorb light with wavelength of 488 nm (one of typical lasers used in flow cytometers, blue light). […] Measuring the fluorescence at 520 nm allows to distinguish the liposomes which contain free calcium and those which are impermeant to calcium.
# (§2) To identify liposomes in the flow, lipids can be supplemented with a lipophilic dye such as 1,1′-dioctadecyl-3,3,3′,3′-tetramethylindodicarbocyanine (DiD), which serves as membrane probe (MP at the FIG. 2). […] However, after ion channels are formed in the particular liposome, the electrolytes are equilibrated between inside and outside of the liposome. Therefore, due to the presence of calcium outside, the liposomes with the channels will have high free calcium, so Fluo-3 will have intensive fluorescence.
# (§3) In the flow cytometer, the appearance of channels is visible as increasing proportion of calcium-loaded liposomes compared with calcium-free liposomes. When every liposome becomes permeant to calcium, all liposomes will be presented as loaded with calcium. This condition is used for normalization and can be achieved in control experiments by the addition of calcium ionophore such as ionomycin.
# Liposomes (400 nm) were made of phosphatidylserine with DiD and were extruded in the buffer without (A-C) or with (D-I) 1 mM Fluo-3. […] Liposomes with membrane but without calcium-sensitive probe in the presence of calcium. • D, E, F (Second row). Liposomes with both membrane and calcium-sensitive probe in the presence of calcium. • G, H, I (Third row). Liposomes with both membrane and calcium-sensitive probe in the absence of calcium. • A, D, G (First column). Liposomes only. • B, E, H (Second column). Liposomes with added 5 μM Aβ25-35. • C, F, I (Third column). Liposomes with added 5 μM Aβ25-35 followed by ionomycin.
# Liposomes made of phosphatidylserine and contained both DiD and Fluo-3. In a calcium-containing medium, membranes are not permeant to calcium, so there is a minimal number of liposomes with increased levels of green fluorescence (A). […] Increasing concentration of amyloid peptide increases the number of permeant liposomes (C, D).
# This figure summarizes data from experiments, described at the FIG. 10. Liposomes made of phosphatidylserine and contained both DiD and Fluo-3 were treated by various concentrations of Aβ25-35. For the treatment, the same stock solution of peptide in distilled water was added to the suspension of liposomes in a calcium-containing medium. The gate to count the number of permeabilized vesicles is shown at the density plot (left graph).
# Phosphatidylserine liposomes were prepared to contain both DiD and Fluo-3 as described for previous figures. Liposomes were tested to be permeabilized by Aβ25-35. • A. Control PS liposomes with calcium (60 μM). Limited number of events is registered in the area corresponding to permeabilized vesicles. • B. Effect of Aβ1-42 (8 μM). […] Effect of ionomycin (50 nM, positive control).
# In this experiment, stock solution of peptides was prepared in DMSO to extend the testing to the peptide which are not soluble in water-based excipients. […] There is no difference between the effects of the peptide that was dissolved initially in DMSO (“Lip+Pep/DMSO”) and water (not shown here). • C.
# The permeabilization to calcium ions will be described first as an example. To detect calcium transmembrane transfer, calcium-sensitive probes are used, such as Fluo-3 or Fluo-4 which dramatically increase their fluorescence upon binding calcium. Liposomes are formed in a calcium-free medium containing calcium-sensitive probe. […]
# [2] = Flow cytometric fluorescence test of phosphatidylcholine liposomes (DiD, Fluo-3); type: biochemical
# Source text: as §1, §2, §3
# Liposomes (400 nm) were made of phosphatidylcholine with DiD and were extruded in the buffer containing 1 mM Fluo-3 (A-H) or without Fluo-3 (I, J).
# The effect of Aβ25-35 was the same in calcium-free medium with EGTA (F,G).
compound,measurement,setting,value
C[C@H](CCC(=O)O)C[C@H](C)C[C@H](C)C(=O)/C=C(\O)[C@H](C)C[C@H](C)C/C=C/[C@@H](C)[C@@H](O)[C@@H](C)[C@@H](O)C[C@@H]1CC[C@@](C)([C@H]2CC[C@@](C)([C@@H](C)O)O2)O1 [ionomycin],permeabilization of liposomes (positive control),"[1]; 50 nM, calcium 60 μM",permeabilizes all liposomes
same,effect of ionomycin added following 5 μM Aβ25-35,[1]; DiD-only vesicles and in the absence of calcium,did not produce any effect
same,Fluo-3 signal after ionomycin added following 5 μM Aβ25-35,"[1]; liposomes with Fluo-3, calcium present",did not further increase the Fluo-3 signal from vesicles with low DiD signal but additionally shifted upwards the part of the distribution with high DiD signal
same,fluorescence after ionophore addition,"[2]; liposomes with 1 mM Fluo-3, calcium present",significantly increased fluorescence
Aβ1-42: full-length amyloid peptide,number of events in the area corresponding to permeabilized vesicles,"[1]; 8 μM peptide, calcium 60 μM, compared with control",does not exceed same number observed in control experiment
same,channel formation / permeabilization of membranes to calcium,[1],does not create channels permeabilizing membranes to calcium
"Aβ25-35: short fragment of beta-amyloid peptide that forms membrane channels (GSNKGAIIGLM; Amyloid-beta protein 42; UniProt P05067 696-706, looked up, fragment)",time for effects of the peptide to develop after addition to liposomes,[1],within the first minute
same,liposomes made permeant to calcium,"[1]; 2 μM peptide, calcium-containing medium",makes some of liposomes permeant to calcium
same,green (Fluo-3) signal from vesicles,"[1]; 5 μM peptide, 400 nm liposomes with 1 mM Fluo-3, extravesicular calcium present",increased green signal from vesicles only in the presence of both Fluo-3 and calcium
same,green signal from vesicles,"[1]; 5 μM peptide, DiD-only liposomes or calcium-free buffer (EGTA)",did not have effect
same,change in number of permeabilized liposomes on prolonged incubation,[1]; incubation with the peptide for up to one hour,does not change the number of permeabilized liposomes
same,permeability of liposomes to calcium,[1],permeabilized liposomes
same,liposomes of total number that become permeant to calcium,"[1]; phosphatidylserine liposomes, various conditions (FIG. 11)",up to 10%
same,channel formation / permeabilization of membranes to calcium,[1],efficiently permeabilize multiple liposomes
same,dependence of number of permeabilized liposomes on amount of added peptide,"[1]; various concentrations, stock in distilled water, calcium-containing medium",linearly dependent on the amount of added peptide
same,effect on green signal compared with calcium-containing medium,[2]; calcium-free medium with EGTA,the same
same,green signal from vesicles,"[2]; concentrations above 10 μM (20 μM, 50 μM), 400 nm liposomes with 1 mM Fluo-3, calcium present",slightly but reproducibly increased green signal from vesicles
same,shift of green fluorescence distribution,[2]; liposomes extruded without Fluo-3,still shifted the distribution upward
"Aβ31-35: amyloid-beta peptide fragment tested at 10 μM from DMSO stock (IIGLM; Amyloid-beta protein 42; UniProt P05067 702-706, looked up, fragment)",permeability of liposomes to calcium,[1],did not affect the permeability of liposomes
